≈ marks a conversion by molar mass, not a printed value.
Assays:
Toll-like receptor 7 = molecular target: T1, Toll-like receptor 7 (Homo sapiens, UniProt Q9NYK1); experiment: Antagonist activity at TLR7 in human PBMC cells assessed as reduction in IFN alpha measured after 20 hrs by AlphaLISA assay; format: cell-based
T1 sequence (Q9NYK1 whole entry): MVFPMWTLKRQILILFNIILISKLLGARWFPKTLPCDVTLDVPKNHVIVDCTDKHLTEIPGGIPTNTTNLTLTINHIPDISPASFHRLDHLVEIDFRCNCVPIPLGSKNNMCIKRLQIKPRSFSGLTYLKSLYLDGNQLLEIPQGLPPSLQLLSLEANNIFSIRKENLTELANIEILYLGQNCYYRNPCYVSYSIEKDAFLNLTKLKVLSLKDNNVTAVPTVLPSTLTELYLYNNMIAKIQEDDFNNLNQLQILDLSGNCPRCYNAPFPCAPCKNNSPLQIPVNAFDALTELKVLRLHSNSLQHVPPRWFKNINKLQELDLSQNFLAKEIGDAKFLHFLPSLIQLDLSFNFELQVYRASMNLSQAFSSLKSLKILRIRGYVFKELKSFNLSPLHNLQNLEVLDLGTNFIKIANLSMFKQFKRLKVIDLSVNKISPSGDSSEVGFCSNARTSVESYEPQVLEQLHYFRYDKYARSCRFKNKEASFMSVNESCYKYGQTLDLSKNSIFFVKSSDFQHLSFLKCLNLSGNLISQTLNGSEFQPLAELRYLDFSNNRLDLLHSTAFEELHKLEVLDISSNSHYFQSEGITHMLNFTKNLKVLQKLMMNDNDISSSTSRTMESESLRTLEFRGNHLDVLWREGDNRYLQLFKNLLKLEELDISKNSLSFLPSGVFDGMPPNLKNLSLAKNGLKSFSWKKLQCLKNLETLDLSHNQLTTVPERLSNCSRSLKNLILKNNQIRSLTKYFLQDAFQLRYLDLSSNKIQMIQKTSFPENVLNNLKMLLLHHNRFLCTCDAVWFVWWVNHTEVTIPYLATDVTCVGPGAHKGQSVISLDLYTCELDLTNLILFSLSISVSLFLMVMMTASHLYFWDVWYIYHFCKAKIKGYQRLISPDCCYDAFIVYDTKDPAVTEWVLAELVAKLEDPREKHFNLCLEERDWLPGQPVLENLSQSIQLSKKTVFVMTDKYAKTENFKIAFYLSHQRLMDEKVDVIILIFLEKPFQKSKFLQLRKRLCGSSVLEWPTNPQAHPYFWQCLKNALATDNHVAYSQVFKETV

Toll-like receptor 8 = molecular target: T2, Toll-like receptor 8 (Homo sapiens, UniProt Q9NR97); experiment: Antagonist activity at TLR8 in human PBMC cells […] assessed as reduction in IL-6 level measured after 20 hrs by AlphaLISA assay; format: cell-based
T2 sequence (Q9NR97 whole entry): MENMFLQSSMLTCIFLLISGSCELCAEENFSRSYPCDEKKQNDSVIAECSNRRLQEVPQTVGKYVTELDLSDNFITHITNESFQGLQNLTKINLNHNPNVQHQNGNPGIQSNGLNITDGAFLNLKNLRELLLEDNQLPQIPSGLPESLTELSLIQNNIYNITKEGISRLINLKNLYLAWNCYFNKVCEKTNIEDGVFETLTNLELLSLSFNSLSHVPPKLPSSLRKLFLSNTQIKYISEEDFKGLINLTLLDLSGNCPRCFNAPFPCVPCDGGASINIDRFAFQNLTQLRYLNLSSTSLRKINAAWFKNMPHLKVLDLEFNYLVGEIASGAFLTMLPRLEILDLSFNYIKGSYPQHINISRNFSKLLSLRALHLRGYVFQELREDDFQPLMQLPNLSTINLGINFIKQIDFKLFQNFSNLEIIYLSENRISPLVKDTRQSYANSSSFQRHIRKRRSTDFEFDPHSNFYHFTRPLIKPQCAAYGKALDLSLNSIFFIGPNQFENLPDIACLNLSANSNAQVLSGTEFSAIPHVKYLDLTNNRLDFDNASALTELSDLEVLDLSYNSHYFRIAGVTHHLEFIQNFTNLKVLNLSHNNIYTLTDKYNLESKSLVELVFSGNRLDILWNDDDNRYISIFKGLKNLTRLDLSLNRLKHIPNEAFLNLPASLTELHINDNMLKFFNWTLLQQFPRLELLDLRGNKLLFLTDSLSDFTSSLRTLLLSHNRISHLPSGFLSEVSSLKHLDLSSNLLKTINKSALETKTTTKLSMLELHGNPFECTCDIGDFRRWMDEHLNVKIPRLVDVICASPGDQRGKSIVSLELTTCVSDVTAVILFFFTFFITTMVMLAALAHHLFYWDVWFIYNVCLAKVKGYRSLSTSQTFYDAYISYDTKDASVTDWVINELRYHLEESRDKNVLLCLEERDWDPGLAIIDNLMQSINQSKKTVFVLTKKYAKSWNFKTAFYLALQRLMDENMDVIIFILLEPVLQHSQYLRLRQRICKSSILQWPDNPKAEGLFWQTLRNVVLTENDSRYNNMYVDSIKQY

Toll-like receptor 9 = molecular target: T3, Toll-like receptor 9 (Homo sapiens, UniProt Q9NR96); experiment: Antagonist activity at TLR9 in human PBMC cells assessed as reduction in IFN alpha measured after 20 hrs by AlphaLISA assay; format: cell-based
T3 sequence (Q9NR96 whole entry): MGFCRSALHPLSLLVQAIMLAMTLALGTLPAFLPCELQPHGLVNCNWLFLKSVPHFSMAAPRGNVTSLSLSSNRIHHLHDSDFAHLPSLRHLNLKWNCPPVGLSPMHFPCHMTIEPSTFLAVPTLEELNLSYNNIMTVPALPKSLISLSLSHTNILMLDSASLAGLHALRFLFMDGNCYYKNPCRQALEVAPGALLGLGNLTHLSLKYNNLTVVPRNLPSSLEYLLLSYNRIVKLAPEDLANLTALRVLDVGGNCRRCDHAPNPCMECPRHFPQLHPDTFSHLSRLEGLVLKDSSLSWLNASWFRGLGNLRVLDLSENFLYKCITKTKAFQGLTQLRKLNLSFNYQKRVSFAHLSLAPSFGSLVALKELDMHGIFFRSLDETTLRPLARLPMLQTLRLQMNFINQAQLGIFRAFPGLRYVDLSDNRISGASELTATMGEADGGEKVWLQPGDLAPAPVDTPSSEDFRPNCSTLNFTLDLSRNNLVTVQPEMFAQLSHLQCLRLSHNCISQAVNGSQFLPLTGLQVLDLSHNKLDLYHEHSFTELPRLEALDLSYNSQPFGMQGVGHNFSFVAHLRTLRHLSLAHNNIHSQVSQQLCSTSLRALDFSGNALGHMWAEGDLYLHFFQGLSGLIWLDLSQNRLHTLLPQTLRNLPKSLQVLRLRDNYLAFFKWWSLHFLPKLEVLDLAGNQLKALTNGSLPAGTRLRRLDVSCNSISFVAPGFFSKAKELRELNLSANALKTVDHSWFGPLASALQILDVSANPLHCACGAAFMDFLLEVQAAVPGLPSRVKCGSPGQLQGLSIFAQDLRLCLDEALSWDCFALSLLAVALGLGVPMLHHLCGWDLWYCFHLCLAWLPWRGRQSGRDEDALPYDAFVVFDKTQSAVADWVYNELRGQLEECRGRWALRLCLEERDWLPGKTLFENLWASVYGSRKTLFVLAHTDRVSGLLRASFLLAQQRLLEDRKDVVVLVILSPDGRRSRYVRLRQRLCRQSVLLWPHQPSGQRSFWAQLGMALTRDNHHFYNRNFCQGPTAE

[1] = Permeability of the compound by PAMPA; format: ADME
[2] = Solubility of the compound; format: physicochemical
[3] = molecular target: Voltage-gated inwardly rectifying potassium channel KCNH2 (Homo sapiens, UniProt Q12809); experiment: Displacement of [3H]-dofetilite from human ERG (unknown origin); format: toxicity
Sequence of Voltage-gated inwardly rectifying potassium channel KCNH2 (Q12809 whole entry): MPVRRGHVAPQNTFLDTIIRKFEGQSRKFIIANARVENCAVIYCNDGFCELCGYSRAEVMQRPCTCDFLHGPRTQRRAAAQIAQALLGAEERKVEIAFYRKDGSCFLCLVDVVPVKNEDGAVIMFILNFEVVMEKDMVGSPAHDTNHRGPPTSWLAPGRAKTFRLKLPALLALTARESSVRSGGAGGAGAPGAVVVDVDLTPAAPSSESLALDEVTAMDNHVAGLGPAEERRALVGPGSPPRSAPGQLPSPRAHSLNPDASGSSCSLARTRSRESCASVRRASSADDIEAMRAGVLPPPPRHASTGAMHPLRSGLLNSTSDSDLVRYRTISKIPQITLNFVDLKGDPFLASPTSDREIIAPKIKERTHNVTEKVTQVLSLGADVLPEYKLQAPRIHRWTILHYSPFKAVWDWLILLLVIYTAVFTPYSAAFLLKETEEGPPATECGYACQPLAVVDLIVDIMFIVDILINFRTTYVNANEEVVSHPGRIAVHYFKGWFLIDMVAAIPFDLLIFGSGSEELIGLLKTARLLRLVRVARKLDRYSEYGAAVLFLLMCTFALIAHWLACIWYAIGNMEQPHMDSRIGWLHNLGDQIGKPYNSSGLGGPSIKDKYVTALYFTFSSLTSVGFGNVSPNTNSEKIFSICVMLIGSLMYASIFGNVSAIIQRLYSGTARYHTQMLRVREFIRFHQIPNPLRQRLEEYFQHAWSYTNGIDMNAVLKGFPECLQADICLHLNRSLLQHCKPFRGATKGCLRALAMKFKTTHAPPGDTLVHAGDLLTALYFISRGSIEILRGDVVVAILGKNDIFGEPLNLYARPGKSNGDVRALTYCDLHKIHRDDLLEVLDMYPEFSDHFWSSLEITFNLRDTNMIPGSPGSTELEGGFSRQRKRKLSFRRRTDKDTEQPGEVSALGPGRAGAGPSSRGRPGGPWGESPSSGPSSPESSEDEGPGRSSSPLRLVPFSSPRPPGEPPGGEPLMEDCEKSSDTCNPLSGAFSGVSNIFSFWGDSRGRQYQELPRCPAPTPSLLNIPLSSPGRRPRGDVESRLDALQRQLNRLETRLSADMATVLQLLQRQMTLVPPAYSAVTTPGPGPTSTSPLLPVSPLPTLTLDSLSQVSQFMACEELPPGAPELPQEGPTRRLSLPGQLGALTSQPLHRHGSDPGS

Cytochrome P450 3A4 [4] = molecular target: T4, Cytochrome P450 3A4 (Homo sapiens, UniProt P08684); experiment: Inhibition of CYP3A4 (unknown origin); format: ADME
T4 sequence (P08684 whole entry): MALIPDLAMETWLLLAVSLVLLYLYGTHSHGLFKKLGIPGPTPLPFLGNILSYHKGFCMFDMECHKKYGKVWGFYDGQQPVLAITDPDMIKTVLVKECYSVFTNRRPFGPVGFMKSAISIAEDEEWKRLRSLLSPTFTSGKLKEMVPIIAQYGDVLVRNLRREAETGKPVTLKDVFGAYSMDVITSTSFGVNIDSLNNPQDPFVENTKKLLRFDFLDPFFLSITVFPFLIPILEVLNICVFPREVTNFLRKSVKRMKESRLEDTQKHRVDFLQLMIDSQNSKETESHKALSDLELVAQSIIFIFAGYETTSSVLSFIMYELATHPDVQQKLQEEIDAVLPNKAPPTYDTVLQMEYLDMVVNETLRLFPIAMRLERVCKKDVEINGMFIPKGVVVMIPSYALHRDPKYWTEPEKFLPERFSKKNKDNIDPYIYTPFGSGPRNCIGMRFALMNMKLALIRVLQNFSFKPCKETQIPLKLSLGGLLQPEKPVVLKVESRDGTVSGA

Cytochrome P450 3A4 [5] = molecular target: T4, Cytochrome P450 3A4; experiment: Time dependent inhibition of CYP3A4 (unknown origin) assessed as Kobs; format: ADME
[6] = Metabolic stability in human liver microsomes assessed as intrinsic clearance; format: ADME, Microsome; settings: read-out: CLH
[7] = Metabolic stability in mouse liver microsomes assessed as intrinsic clearance; format: ADME, Microsome; settings: read-out: CLH
[8] = Metabolic stability in rat liver microsomes assessed as intrinsic clearance; format: ADME, Microsome; settings: read-out: CLH
[9] = Volume of distribution at steady state in mouse at 1 mg/ml, po or iv; format: ADME, organism-based; settings: in vivo
[10] = AUC in mouse at 1 mg/ml, iv; format: ADME; parameters: dose 1 mg/ml, route iv; settings: in vivo
[11] = MRT in mouse at 1 mg/ml, po or iv; format: ADME, organism-based; settings: in vivo
[12] = Cmax in mouse at 1 mg/ml, po; format: ADME; parameters: dose 1 mg/ml, route po; settings: in vivo
[13] = AUC in mouse at 1 mg/ml, po; format: ADME; parameters: dose 1 mg/ml, route po; settings: in vivo
[14] = Oral bioavailability in mouse at 1 mg/ml; format: ADME, organism-based; settings: in vivo
[15] = Volume of distribution at steady state in rat at 1 mg/ml, po or iv; format: ADME, organism-based; settings: in vivo
[16] = AUC in rat at 1 mg/ml, iv; format: ADME; parameters: dose 1 mg/ml, route iv; settings: in vivo
[17] = MRT in rat at 1 mg/ml, po or iv; format: ADME, organism-based; settings: in vivo
[18] = Cmax in rat at 1 mg/ml, po; format: ADME; parameters: dose 1 mg/ml, route po; settings: in vivo
[19] = AUC in rat at 1 mg/ml, po; format: ADME; parameters: dose 1 mg/ml, route po; settings: in vivo
[20] = Oral bioavailability in rat at 1 mg/ml; format: ADME, organism-based; settings: in vivo

Row | SMILES | IC50 (Toll-like receptor 7) [nM] | IC50 (Toll-like receptor 8) [nM] | IC50 (Toll-like receptor 9) [nM] | log(permeability) [1] | solubility [2] [µM] | IC50 (Cytochrome P450 3A4 [4]) [µM] | Kobs (Cytochrome P450 3A4 [5]) [min⁻¹] | microsomal CLint [6] [µL/min/mg] | microsomal CLint [7] [µL/min/mg] | microsomal CLint [8] [µL/min/mg] | IC50 [3] [µM] | also measured
1 | Cc1cc(N2CCc3c(c(C)nn3CC34CCC(N(C)C)(CC3)CC4)C2)c2cnn(C)c2n1 | 9 | 160 | 710 | -4.6 | > 175 | > 50 | 0.032 | 34 | 33 | 36 | > 30 | –
2 | CNC12CCC(Cn3nc(C)c4c3CCN(c3cc(C)nc5c3cnn5C)C4)(CC1)CC2 | 7 | 330 | 440 | -5.3 | > 175 | > 50 | 0.008 | < 15 | 28 | < 15 | > 30 | –
3 | Cc1cc(N2CCc3c(c(C)nn3CC34CCC(N5C[C@@H](C)O[C@@H](C)C5)(CC3)CC4)C2)c2cnn(C)c2n1 | 10 | 20 | 1500 | -3.9 | > 175 | > 50 | 0.031 | 130 | 440 | 55 | > 30 | –
4 | COCCNC12CCC(Cn3nc(C)c4c3CCN(c3cc(C)nc5c3cnn5C)C4)(CC1)CC2 | 10 | 50 | 350 | -4.8 | > 175 | – | – | 27 | < 15 | < 15 | 22 | –

More lines, main results first:

Row | IC50 (Toll-like receptor 7) [nM] | IC50 (Toll-like receptor 8) [nM] | IC50 (Toll-like receptor 9) [nM] | log(permeability) [1] | solubility [2] [µM] | IC50 (Cytochrome P450 3A4 [4]) [µM] | Kobs (Cytochrome P450 3A4 [5]) [min⁻¹] | microsomal CLint [6] [µL/min/mg] | microsomal CLint [7] [µL/min/mg] | microsomal CLint [8] [µL/min/mg] | SMILES | IC50 [3] [µM] | also measured
5 | 30 | 180 | 970 | -4.5 | > 175 | 33 | 0.009 | 57 | 60 | 67 | Cc1cc(N2CCc3c(c(C)nn3CC34CCC(NC5COC5)(CC3)CC4)C2)c2cnn(C)c2n1 | > 30 | –
6 | 8 | > 10000 | > 10000 | -4.8 | 120 (≈ 59.7 µg/mL) | > 50 | 0.021 | 107 | – | 78 | Cc1cc(N2CCc3c(c(C)nn3CC34CCC(NS(C)(=O)=O)(CC3)CC4)C2)c2cnn(C)c2n1 | > 30 | –
7 | – | 71 | 550 | -4.2 | > 175 | 28 | 0.037 | 52 | 77 | 28 | Cc1cc(N2CCc3c(c(C)nn3CC34CCC(NC5CCC5)(CC3)CC4)C2)c2cnn(C)c2n1 | 25 | –
8 | – | 190 | 700 | -5.3 | – | > 50 | 0.022 | < 15 | 42 | 34 | CN[C@@H](C)C(=O)NC12CCC(Cn3nc(C)c4c3CCN(c3cc(C)nc5c3cnn5C)C4)(CC1)CC2 | > 30 | Vdss [9]: 3.5 L/kg; AUC [10]: 1.79 µM·h; MRT [11]: 1.6 h; Cmax [12]: 237 nM; AUC [13]: 2.34 µM·h; bioavailability [14]: 26%; Vdss [15]: 2 L/kg; AUC [16]: 1.78 µM·h; MRT [17]: 1.6 h; Cmax [18]: 31 nM; AUC [19]: 0.483 µM·h; bioavailability [20]: 9%
9 | – | 30 | 2100 | -4.1 | > 175 | > 50 | 0.038 | 130 | 246 | 175 | Cc1cc(N2CCc3c(c(C)nn3CC34CCC(N5CCOCC5)(CC3)CC4)C2)c2cnn(C)c2n1 | > 30 | –

Source: ChEMBL document CHEMBL5360657, “Discovery of the TLR7/8 Antagonist MHV370 for Treatment of Systemic Autoimmune Diseases” (ACS Med Chem Lett, 2023)
